Here are results for 14 compounds from patent publication US20250109140A1, “5-[5-(PIPERIDIN-4-YL)THIENO[3,2-C]PYRAZOL-2-YL]INDAZOLE DERIVATIVES AND RELATED COMPOUNDS AS MODULATORS FOR SPLICING NUCLEIC ACIDS AND FOR THE TREATMENT OF PROLIFERATIVE DISEASES” (REMIX THERAPUTICS INC., priority 2022, published 2025).

What all share (format): cell-based
The test system of one assay is Target C mRNA. Nature of the assay: Splicing RT-qPCR gene panel, Target C canonical junction (CJ) mRNA. Conditions: Homo sapiens; Table 8; larger gene panel, decrease in CJ mRNA levels. In a few lines: (§1)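 Readout is RT-qPCR of CJ and AJ mRNA in lysates from A673 or K562 cells given an 11-point titration (top dose 10 uM final, DMSO at most 0.25%) for 24 hours. Data were normalized to GAPDH, GUSB or PPIA, then to DMSO.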
For orientation: In qPCR the cycle at which signal appears reflects the starting amount.

The next assay deals with HTT mRNA. Nature of the assay: Splicing RT-qPCR assay, HTT canonical (CJ) and alternative (AJ) junction mRNA. To be noted: Homo sapiens; for EC50: AC50 = 50% response in AJ mRNA increase. An outline of the steps:
as §1

The test system of the next assay is MYB mRNA. Nature of the assay: Splicing RT-qPCR assay, MYB canonical (CJ) and alternative (AJ) junction mRNA. To be noted: Homo sapiens; for EC50: AC50 = 50% response in AJ mRNA increase. In a few lines: as §1
For another assay, the system named is SMN2 mRNA. Kind of assay: Splicing RT-qPCR gene panel, SMN2 canonical junction (CJ) mRNA. To be noted: Homo sapiens; Table 8; larger gene panel, decrease in CJ mRNA levels. In a few lines: as §1
The mark [1] stands for this setting: Table 7, RT-qPCR, A673 or K562 cells, 24 hours treatment.
Where [2] appears, read: Table 7, IC50 = 50% response in CJ mRNA decrease, RT-qPCR, A673 or K562 cells, 24 hours treatment, read-out: HTT CJ.
[3] abbreviates: Table 8, larger gene panel, decrease in CJ mRNA levels, read-out: HTT CJ IC50.
The mark [4] stands for this setting: Table 7, IC50 = 50% response in CJ mRNA decrease, RT-qPCR, A673 or K562 cells, 24 hours treatment, read-out: MYB CJ.
Where [5] appears, read: Table 8, larger gene panel, decrease in CJ mRNA levels, read-out: MYB CJ IC50.

Structures are written as SMILES. Where a name gives a salt, the structure may show the parent alone. Read-outs that look alike come from different tables or passages of the source. Some results are limits rather than exact numbers.

On to `Cc1cn2nc(-c3nc4sc(C5CCNCC5)cc4s3)cc2c(C)n1` [Compound 133, 4-(2-[4,6-dimethylpyrazolo[1,5-a]pyrazin-2-yl]thieno[2,3-d][1,3]thiazol-5-yl)piperidine], for which the IC50 in the assay with Target C mRNA, with HTT mRNA (setting [2]), in the assay on HTT mRNA (setting [3]), in the assay on MYB mRNA (setting [4]), in the assay with MYB mRNA (setting [5]) and in the assay on SMN2 mRNA was 100 to 1000 nM in each case. The EC50 in the assay with HTT mRNA (setting [1]) and with MYB mRNA (setting [1]) was 100 to 1000 nM each time.
Turning to `Cc1cn2cc(-c3nc4sc(C5CCNCC5)cc4s3)cc(Cl)c2n1` [Compound 139], the IC50 in the assay with Target C mRNA, with HTT mRNA (setting [2]), in the assay with HTT mRNA (setting [3]), in the assay with MYB mRNA (setting [4]), with MYB mRNA (setting [5]) and in the assay with SMN2 mRNA was under 100 nM throughout. Besides, the EC50 with HTT mRNA (setting [1]) and in the assay on MYB mRNA (setting [1]) was under 100 nM in each case.
As to `Cc1cn2cc(-c3nc4sc(C5CCNCC5)cc4s3)cc(F)c2n1` [Compound 130, 4-(2-[8-fluoro-2-methylimidazo[1,2-a]pyridin-6-yl]thieno[2,3-d][1,3]thiazol-5-yl)piperidine hydrochloride], the IC50 in the assay on Target C mRNA, in the assay on HTT mRNA (setting [2]), in the assay on HTT mRNA (setting [3]), in the assay with MYB mRNA (setting [4]), with MYB mRNA (setting [5]) and in the assay on SMN2 mRNA was under 100 nM throughout. In addition, the EC50 with HTT mRNA (setting [1]) and in the assay on MYB mRNA (setting [1]) was under 100 nM throughout.
Regarding `Cc1cn2cc(-c3nc4sc(C5CCNCC5)cc4s3)cc(C)c2n1` [Compound 140, 4-(2-[2,8-dimethylimidazo[1,2-a]pyridin-6-yl]thieno[2,3-d][1,3]thiazol-5-yl)piperidine hydrochloride], the IC50 with Target C mRNA is 100 to 1000 nM; in the assay with HTT mRNA (setting [2]) it was under 100 nM; in the assay on HTT mRNA (setting [3]), under 100 nM; with MYB mRNA (setting [4]), 100 to 1000 nM; in the assay on MYB mRNA (setting [5]), 100 to 1000 nM; in the assay on SMN2 mRNA it was under 100 nM. Besides, the values for the EC50 with HTT mRNA (setting [1]) and in the assay on MYB mRNA (setting [1]) were under 100 nM and 100 to 1000 nM, respectively.
Consider `Cc1cn2cc(-c3nc4sc(C5CCNCC5)cc4s3)ccc2n1` [Compound 271, 4-(2-{2-methylimidazo[1,2-a]pyridin-6-yl}thieno[2,3-d][1,3]thiazol-5-yl)piperidine], for which the IC50 is 100 to 1000 nM in the assay with Target C mRNA; under 100 nM with HTT mRNA (setting [2]); 100 to 1000 nM with HTT mRNA (setting [3]); 100 to 1000 nM in the assay with MYB mRNA (setting [4]); 100 to 1000 nM in the assay on MYB mRNA (setting [5]); under 100 nM in the assay on SMN2 mRNA. Also, the EC50 in the assay with HTT mRNA (setting [1]) and in the assay with MYB mRNA (setting [1]) was 100 to 1000 nM each time.
Consider `COc1c(-c2cc3cn(C4CCNCC4)nc3s2)cc2c[nH]nc2c1C` [Compound 248], for which the IC50 in the assay on Target C mRNA, with HTT mRNA (setting [2]), with HTT mRNA (setting [3]), with MYB mRNA (setting [4]), in the assay with MYB mRNA (setting [5]) and in the assay with SMN2 mRNA was over 10000 nM throughout. Besides, the EC50 in the assay on HTT mRNA (setting [1]) and in the assay with MYB mRNA (setting [1]) was over 10000 nM throughout.
Turning to `Cn1cc2cc(-c3nc4sc(N5CCNCC5)c(Cl)c4s3)cc(F)c2n1` [Compound 147], the IC50 in the assay on Target C mRNA was 1000 to 10000 nM; in the assay on HTT mRNA (setting [2]), 100 to 1000 nM; with HTT mRNA (setting [3]) it was 100 to 1000 nM; with MYB mRNA (setting [4]), 100 to 1000 nM; with MYB mRNA (setting [5]), under 100 nM; with SMN2 mRNA, under 100 nM. Further, the EC50 (commonly the concentration giving half of the maximal effect) was 100 to 1000 nM in the assay with HTT mRNA (setting [1]) and under 100 nM in the assay with MYB mRNA (setting [1]).
With `CN1CCN(c2cc3sc(-c4cc(F)c5nn(C)cc5c4)nc3s2)CC1` [Compound 141, 7-fluoro-2-methyl-5-[5-(4-methylpiperazin-1-yl)thieno[2,3-d][1,3]thiazol-2-yl]indazole], the IC50 in the assay on Target C mRNA is 1000 to 10000 nM; with HTT mRNA (setting [2]), 100 to 1000 nM; with HTT mRNA (setting [3]), 100 to 1000 nM; in the assay on MYB mRNA (setting [4]), 100 to 1000 nM; in the assay with MYB mRNA (setting [5]), 100 to 1000 nM; in the assay with SMN2 mRNA, under 100 nM. For the same compound, the EC50 in the assay with HTT mRNA (setting [1]) and in the assay with MYB mRNA (setting [1]) was 100 to 1000 nM in each case.
`Cn1cc2cc(-c3nc4sc(N5CCN6CCCC6C5)cc4s3)cc(F)c2n1` (stereo not shown) [Compound 144, 7-fluoro-5-(5-[hexahydro-1H-pyrrolo[1,2-a]pyrazin-2-yl]thieno[2,3-d][1,3]thiazol-2-yl)-2-methylindazole]: the IC50 is over 10000 nM with Target C mRNA; 1000 to 10000 nM in the assay on HTT mRNA (setting [2]); 100 to 1000 nM in the assay with HTT mRNA (setting [3]); 1000 to 10000 nM in the assay on MYB mRNA (setting [4]); 100 to 1000 nM with MYB mRNA (setting [5]); under 100 nM in the assay with SMN2 mRNA. The EC50 in the assay on HTT mRNA (setting [1]) and with MYB mRNA (setting [1]) was 100 to 1000 nM in each case.
On to `Cc1cn2cc(-c3nc4sc(C5CCNCC5)cc4s3)nc(C)c2n1` [Compound 270, 4-(2-{2,8-dimethylimidazo[1,2-a]pyrazin-6-yl}thieno[2,3-d][1,3]thiazol-5-yl)piperidine], for which the IC50 in the assay on Target C mRNA was 100 to 1000 nM; with HTT mRNA (setting [2]), under 100 nM; in the assay with HTT mRNA (setting [3]), 100 to 1000 nM; in the assay on MYB mRNA (setting [4]) it was 100 to 1000 nM; with MYB mRNA (setting [5]) it was 1000 to 10000 nM; in the assay with SMN2 mRNA, under 100 nM. Further, the EC50 in the assay with HTT mRNA (setting [1]) was 100 to 1000 nM; in the assay on MYB mRNA (setting [1]), 1000 to 10000 nM.
Regarding `CCNC1CCN(c2cc3sc(-c4cc(F)c5nn(C)cc5c4)nc3s2)CC1` [Compound 137, N-ethyl-1-[2-(7-fluoro-2-methylindazol-5-yl)thieno[2,3-d][1,3]thiazol-5-yl]piperidin-4-amine], the IC50 in the assay with Target C mRNA is 100 to 1000 nM; in the assay on HTT mRNA (setting [2]) it was 100 to 1000 nM; in the assay on HTT mRNA (setting [3]), 100 to 1000 nM; in the assay with MYB mRNA (setting [4]), 100 to 1000 nM; in the assay with MYB mRNA (setting [5]), 100 to 1000 nM; in the assay with SMN2 mRNA it was under 100 nM. Further, the EC50 in the assay on HTT mRNA (setting [1]) and in the assay on MYB mRNA (setting [1]) was 100 to 1000 nM throughout.
Turning to `CN1CCC2(CC1)CCN2c1cc2sc(-c3cc(F)c4nn(C)cc4c3)nc2s1` [Compound 204, 1-[2-(7-fluoro-2-methylindazol-5-yl)thieno[2,3-d][1,3]thiazol-5-yl]-7-methyl-1,7-diazaspiro [3.5]nonane], the IC50 in the assay with Target C mRNA, in the assay with HTT mRNA (setting [2]), in the assay on HTT mRNA (setting [3]), in the assay on MYB mRNA (setting [4]), in the assay on MYB mRNA (setting [5]) and in the assay on SMN2 mRNA was 1000 to 10000 nM each time. Besides, the EC50 with HTT mRNA (setting [1]) and with MYB mRNA (setting [1]) was 1000 to 10000 nM throughout.
For `Cc1cn2nc(-c3cc4sc(C5CCNCC5)nc4s3)cc(C)c2n1` [Compound 125, 4-(5-[2,8-dimethylimidazo[1,2-b]pyridazin-6-yl]thieno [2,3-d][1,3]thiazol-2-yl) piperidine], the IC50 in the assay on Target C mRNA was 1000 to 10000 nM; with HTT mRNA (setting [2]) it was 100 to 1000 nM; in the assay on HTT mRNA (setting [3]), 100 to 1000 nM; in the assay on MYB mRNA (setting [4]), 1000 to 10000 nM; with MYB mRNA (setting [5]), 100 to 1000 nM; in the assay on SMN2 mRNA it was 100 to 1000 nM. The EC50 in the assay on HTT mRNA (setting [1]) and in the assay with MYB mRNA (setting [1]) was 100 to 1000 nM in each case.
For the compound `Cn1cc2cc(-c3nc4sc([C@H]5CCNC[C@H]5F)cc4s3)cc(F)c2n1` [Compound 240, 7-fluoro-5-{5-[(3S,4S)-3-fluoropiperidin-4-yl]thieno[2,3-d][1,3]thiazol-2-yl}-2-methylindazole], the IC50 in the assay with Target C mRNA is over 10000 nM; with HTT mRNA (setting [2]), 1000 to 10000 nM; with HTT mRNA (setting [3]), 1000 to 10000 nM; in the assay on MYB mRNA (setting [4]), 1000 to 10000 nM; in the assay with MYB mRNA (setting [5]), 1000 to 10000 nM; in the assay on SMN2 mRNA it was 100 to 1000 nM. For the same compound, the EC50 in the assay with HTT mRNA (setting [1]) and in the assay on MYB mRNA (setting [1]) was 1000 to 10000 nM throughout.
